Assay results published in ChEMBL document CHEMBL1201862, “PubChem BioAssay data set” (2004).
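A five-concentration, 48-hour dose response in 96-well plates underlies each endpoint, interpolated linearly between surrounding concentrations. GI50 marks 50% less growth.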 Calls of active or inactive are those of the source. No stated cut-off is given here; in the data, active = GI50 up to about 1.1 µM and inactive = higher.

Legend:
Assay in all cases: growth of human tumour cells (NCI), 48 h
A549 = test system: A549
MOLT-4 = test system: MOLT-4
RXF 393 = test system: RXF 393
M14 = test system: M14
HCT-116 = test system: HCT-116
CCRF-CEM = test system: CCRF-CEM
A498 = test system: A498
CAKI-1 = test system: CAKI-1
HL-60 = test system: HL-60
EKVX = test system: EKVX
SNB-75 = test system: SNB-75
TK-10 = test system: TK-10
K562 = test system: K562
HT-29 = test system: HT-29
UACC-62 = test system: UACC-62
SF-295 = test system: SF-295
IGROV-1 = test system: IGROV-1
SNB-19 = test system: SNB-19
COLO 205 = test system: COLO 205
KM12 = test system: KM12

Row | Compound | GI50 (A549) | GI50 (MOLT-4) | GI50 (RXF 393) | GI50 (M14) | GI50 (HCT-116) | GI50 (CCRF-CEM) | GI50 (A498) | GI50 (CAKI-1) | GI50 (HL-60) | GI50 (EKVX) | GI50 (SNB-75) | GI50 (TK-10) | GI50 (K562) | GI50 (HT-29) | GI50 (UACC-62) | GI50 (SF-295) | GI50 (IGROV-1) | GI50 (SNB-19) | GI50 (COLO 205) | GI50 (KM12)
1 | N#Cc1c(OCCF)c2ccccc2n2c1nc1ccccc12 | 31.6 µM (inactive) | 27.8 µM (inactive) | 17.3 µM (inactive) | > 100 µM (inactive) | 11.2 µM (inactive) | 95.7 µM (inactive) | 1.94 µM (inactive) | 52.2 µM (inactive) | 97.7 µM (inactive) | 99.1 µM (inactive) | 70.6 µM (inactive) | 31.1 µM (inactive) | > 100 µM (inactive) | 64.3 µM (inactive) | 48.6 µM (inactive) | 23.9 µM (inactive) | 23.8 µM (inactive) | 29.2 µM (inactive) | > 100 µM (inactive) | > 100 µM (inactive)
2 | COc1ccc(NC(=O)CC(=O)N2N=C(N3c4ccccc4Sc4ccccc43)CC2c2ccccc2)cc1 (stereo not drawn) | > 100 µM (inactive) | > 100 µM (inactive) | > 100 µM (inactive) | > 100 µM (inactive) | > 100 µM (inactive) | > 100 µM (inactive) |  | > 100 µM (inactive) | > 100 µM (inactive) | > 100 µM (inactive) | 47.6 µM (inactive) | > 100 µM (inactive) | > 100 µM (inactive) | > 100 µM (inactive) | > 100 µM (inactive) | > 100 µM (inactive) | > 100 µM (inactive) | > 100 µM (inactive) | > 100 µM (inactive) | > 100 µM (inactive)
3 | COC1OC2COC(c3ccccc3)OC2C(OC(=S)c2ccccc2)C1O (stereo not drawn) | 13.4 µM (inactive) | > 100 µM (inactive) | 12 µM (inactive) | > 100 µM (inactive) |  | 14.3 µM (inactive) | > 100 µM (inactive) | 41 µM (inactive) |  | 0.358 µM (active) |  | 28.2 µM (inactive) | > 100 µM (inactive) | > 100 µM (inactive) | > 100 µM (inactive) | 28.8 µM (inactive) | > 100 µM (inactive) | > 100 µM (inactive) | > 100 µM (inactive) | 
4 | C1=N\CCOCC/N=C\c2ccc(cc2)OCc2cccc(n2)COc2ccc/1cc2 | > 100 µM (inactive) | > 100 µM (inactive) | > 100 µM (inactive) | > 100 µM (inactive) | > 100 µM (inactive) | > 100 µM (inactive) | > 100 µM (inactive) |  | > 100 µM (inactive) | > 100 µM (inactive) | > 100 µM (inactive) | > 100 µM (inactive) | > 100 µM (inactive) | > 100 µM (inactive) | > 100 µM (inactive) | 98.2 µM (inactive) | > 100 µM (inactive) | > 100 µM (inactive) | > 100 µM (inactive) | > 100 µM (inactive)
5 | Cc1ccc(N2C(=O)C3CSCN3C2=O)cc1 (stereo not drawn) | > 100 µM (inactive) | > 100 µM (inactive) |  |  | 2.46 µM (inactive) | > 100 µM (inactive) | > 100 µM (inactive) | > 100 µM (inactive) | > 100 µM (inactive) | > 100 µM (inactive) | > 100 µM (inactive) |  | > 100 µM (inactive) | > 100 µM (inactive) | > 100 µM (inactive) | > 100 µM (inactive) | > 100 µM (inactive) | > 100 µM (inactive) | > 100 µM (inactive) | > 100 µM (inactive)
6 | C=CCc1c(O)c2c(c3oc(=O)cc(C)c13)CC(C)O2 (stereo not drawn) | > 100 µM (inactive) | 56.5 µM (inactive) | 67.8 µM (inactive) | > 100 µM (inactive) | > 100 µM (inactive) | 50.4 µM (inactive) |  | > 100 µM (inactive) | 86.7 µM (inactive) | > 100 µM (inactive) | > 100 µM (inactive) | > 100 µM (inactive) | > 100 µM (inactive) | 57.7 µM (inactive) | > 100 µM (inactive) | > 100 µM (inactive) | 20.2 µM (inactive) | > 100 µM (inactive) |  | 
7 | CON(C)c1nc(N(C)OC)nc(N(C)OC)n1 | > 10 µM (inactive) | > 10 µM (inactive) | > 10 µM (inactive) | > 10 µM (inactive) | > 10 µM (inactive) | > 10 µM (inactive) | > 10 µM (inactive) | > 10 µM (inactive) | > 10 µM (inactive) | > 10 µM (inactive) | > 10 µM (inactive) | > 10 µM (inactive) | > 10 µM (inactive) | > 10 µM (inactive) | > 10 µM (inactive) | > 10 µM (inactive) | > 10 µM (inactive) | > 10 µM (inactive) | > 10 µM (inactive) | > 10 µM (inactive)
